From patent US20210053957A1, “HERBICIDAL COMPOUNDS” (SYNGENTA PARTICIPATIONS AG, priority 2018, published 2021)

Columns and labels:
Experiment in all cases: Post-emergence efficacy, glasshouse spray test
Assay type in all cases: in vivo
[1] = system: Setaia fabei (SETFA); conditions: Setaria faberi, post-emergence, 312 h; Application Rate 500 g/Ha; evaluated after 13 days; read-out: Control of weed species after post-emergence application, SETFA (100=total damage to plant; 0=no damage to plant)
In short: (§1)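 Pot-grown plants sprayed 14 days after sowing, held in glasshouse at 24/16° C day/night, 14 h light, 65% humidity. Active formulated in acetone plus IF50 as 50 g/l stock, diluted in 0.25% or 1% Empicol ESC70 + 1% ammonium sulphate. Damage scored after 13 days, 0 (none) to 100 (total).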

[2] = system: Euphorbia heterophylla (EPHHL); conditions: Euphorbia heterophylla, post-emergence, 312 h; Application Rate 500 g/Ha; evaluated after 13 days; read-out: Control of weed species after post-emergence application, EPHHL (100=total damage to plant; 0=no damage to plant)
In short: as §1

[3] = system: Lolium perenne (LOLPE); conditions: Lolium perenne, post-emergence, 312 h; Application Rate 500 g/Ha; evaluated after 13 days; read-out: Control of weed species after post-emergence application, LOLPE (100=total damage to plant; 0=no damage to plant)
In short: as §1

[4] = system: Ipomoea hederacea (IPOHE); conditions: Ipomoea hederacea, post-emergence, 312 h; Application Rate 500 g/Ha; evaluated after 13 days; read-out: Control of weed species after post-emergence application, IPOHE (100=total damage to plant; 0=no damage to plant)
In short: as §1

[5] = system: Digitaria sanguinalis (DIGSA); conditions: Digitaria sanguinalis, post-emergence, 312 h; Application Rate 500 g/Ha; evaluated after 13 days; read-out: Control of weed species after post-emergence application, DIGSA (100=total damage to plant; 0=no damage to plant)
In short: as §1

[6] = system: Amaranthus palmeri (AMAPA); conditions: Amaranthus palmeri, post-emergence, 312 h; Application Rate 500 g/Ha; evaluated after 13 days; read-out: Control of weed species after post-emergence application, AMAPA (100=total damage to plant; 0=no damage to plant)
In short: as §1

[7] = system: Echinochloa crus-galli (ECHCG); conditions: Echinochloa crus-galli, post-emergence, 312 h; Application Rate 500 g/Ha; evaluated after 13 days; read-out: Control of weed species after post-emergence application, ECHCG (100=total damage to plant; 0=no damage to plant)
In short: as §1

[8] = system: Chenopodium album (CHEAL); conditions: Chenopodium album, post-emergence, 312 h; Application Rate 500 g/Ha; evaluated after 13 days; read-out: Control of weed species after post-emergence application, CHEAL (100=total damage to plant; 0=no damage to plant)
In short: as §1

[9] = system: Eleusine indica (ELEIN); conditions: Eleusine indica, post-emergence, 312 h; Application Rate 500 g/Ha; evaluated after 13 days; read-out: Control of weed species after post-emergence application, ELEIN (100=total damage to plant; 0=no damage to plant)
In short: as §1

O=S(=O)([O-])CC[n+]1ccc(-c2ccsn2)cn1 [Compound A105]
pest or weed control at 500 g/ha [1]: 90% | pest or weed control at 500 g/ha [2]: 100% | pest or weed control at 500 g/ha [3]: 70% | pest or weed control at 500 g/ha [4]: 70% | pest or weed control at 500 g/ha [5]: 100% | pest or weed control at 500 g/ha [6]: 90% | pest or weed control at 500 g/ha [7]: 80% | pest or weed control at 500 g/ha [8]: 90% | pest or weed control at 500 g/ha [9]: 90%

CC(CNS(=O)(=O)[O-])[n+]1ccc(-c2ncco2)cn1 (stereo not drawn) [Compound A83]
pest or weed control at 500 g/ha [1]: 60% | pest or weed control at 500 g/ha [2]: 70% | pest or weed control at 500 g/ha [3]: 50% | pest or weed control at 500 g/ha [4]: 40% | pest or weed control at 500 g/ha [5]: 60% | pest or weed control at 500 g/ha [6]: 100% | pest or weed control at 500 g/ha [7]: 60% | pest or weed control at 500 g/ha [8]: 70% | pest or weed control at 500 g/ha [9]: 70%
